Results taken from US20130197023A1, “NEUROPROTECTION BY PHARMACOLOGICAL CHAPERONING OF NICOTINIC ACETYLCHOLINE RECEPTORS” (priority 2012, published 2013).
“And” between values parts separate entries of the source, which are not always exact repeats. Equal entries are not always repeated. “Also recorded” adds a separate entry of the source. Where two headings read alike, the source gives them in different places.

What was measured:
α4-GFPβ4-WT nAChRs = biological target: T1, α4-GFPβ4-WT nAChRs (Mus musculus, UniProt O70174+Q8R493); assay: Whole-cell patch clamp of ACh currents in cortical neurons transfected with α4-GFPβ4-WT; type: cell-based
T1 construct: expressed in transfected cells; host or cells: mouse cortical neurons (primary culture)
Description: (§1) To correlate the fluorescence based insertion measurements with electrophysiological measurements, we performed whole-cell patch clamp recording from neurons in the preparation used for our fluorescence experiments, transfected either with α4-GFPβ4-WT or with α4-GFPβ4-R348C nAChRs. The successfully transfected neurons were identified with green fluorescence (FIG. 6. A, D of Richards et al.). Puffs of 300 μM ACh (0.1 s, 20 psi), typically give maximal currents in previous experiments and therefore provide a measure of nAChR number. ACh evoked inward currents in 100% (8/8) and 92% (11/12) of neurons transfected with α4-GFPβ4-WT and α4-GFPβ4-R348C nAChRs, respectively (FIG. 6B, 6E of Richards et al.). The α4-GFPβ4-R348C nAChR currents (120±33 pA, n=12) were only 40% of α4-GFPβ4-WT nAChR currents (310±72 pA, n=8) (p=0.02) (FIG. 6C of Richards et al.). Because variations among the size of neurons could complicate the data, we calculated current density (dividing ACh currents divided by membrane capacitance). The current density of […] (16.3±2.1 pA/pF, n=8) (p=0.001) (FIG. 6F of Richards et al.). Thus in cortical neurons, the R348C mutation produces a fairly consistent ˜2-fold decrease in α4β4-insertion rate and ˜2.5 fold decrease in ACh-induced currents.

α4-GFPβ4-R348C nAChRs = biological target: T2, α4-GFPβ4-R348C nAChRs (Mus musculus, UniProt O70174+Q8R493, R348C); assay: Whole-cell patch clamp of ACh currents in cortical neurons transfected with α4-GFPβ4-R348C; type: cell-based
T2 construct: expressed in transfected cells; host or cells: mouse cortical neurons (primary culture)
Description: as §1

Neuro-2a cells [1] = type: cell-based, mouse
Description: (§2) Neuro-2a cells were transfected with α4-eGFP (500 ng)+β2wt (500 ng)+GaIT-mcherry (250 ng) or pDSred2-ER (100 ng) and cells were incubated for 48 h with appropriate concentrations of nicotine, cytisine or DHβE.
Two color fluorescence signals were separated with a dichroic and optical filters aligned in the emission path where green and red emission was separately aligned to the two halves of an EMCCD. Post-acquisition processing of images used Metamorph to demarcate TGN bodies and to extract number, size and intensity statistics.

ATF6 = type: cell-based, mouse
Description: (§3) Mouse Neuro-2a cells were cultured using standard tissue culture techniques and maintained in 45% DMEM, 45% OptiMEM and 10% FBS. Plasmid concentrations used for transfection were as follows: 500 ng of each nAChR subunit, 75 ng of pCS2-mcherry, 250 ng of Sec24D constructs, 100 ng of pDsRed2-ER, 250 ng of GaIT-eCFP and 500 ng of ATF6-eGFP. 90,000 cells were plated in poly-D-lysine coated 35 mm MatTek glass bottom imaging dishes. The following day, plasmid DNA was mixed with cationic lipids by adding appropriate DNA concentrations to 4 μl of Expressfect transfection reagent in 200 μl DMEM final volume and incubated for 20 min at room temperature to form cationic lipid-DNA complexes. DMEM+DNA-lipid complexes were added to Neuro-2a cells in 1 ml of DMEM+10% FBS and incubated at 37° C. for 4 h. Dishes were rinsed 2× with DMEM, then filled with 3 ml of DMEM+10% FBS and incubated at 37° C. for 48 h. Nicotine, cytisine or DHβE was added at appropriate concentrations during the change of medium following 4 h incubation with Expressfect-plasmid DNA complexes.

α4β2 nAChRs = α4β2 nAChRs (Mus musculus, UniProt O70174+Q9ERK7)
Description: For NFRET experiments, Neuro-2a cells were transfected with GaIT-eCFP+α4-mcherry+β2-eGFP subunits. GaIT-eCFP was used to label the TG, TGN (Schaub et al., 2006). Cells transfected with α4-mcherryβ2wt or α4wtβ2-eGFP nAChRs were included in every imaging session to control for pixel saturation and spectral bleedthrough. Live cells were imaged using an Eclipse C1si laser scanning confocal microscope. During image acquisition, cells were focused to a plane where the GaIT-eCFP fluorescence was best visualized. Images with emission spectra for eCFP, eGFP and mcherry were acquired in 5-nm bins between 470 and 620 nm. 439, 488 and 561 nm laser lines were used to excite eCFP, eGFP and mcherry respectively. Images were linearly unmixed using reference spectra for eCFP, eGFP and mcherry with emission maxima at 477, 508 and 608 nm. Reference spectra were acquired from Neuro-2a cells transfected with either GaIT-eCFP or α4-mcherryβ2wt or α4wtβ2-eGFP during the same imaging session. Linear unmixing was used to separate all three emission spectra from each image. Linearly unmixed images were compiled into donor spectral bleed-through stacks, acceptor spectral bleed-through stacks, and sample image stacks.
The PixFRET ImageJ plugin was used to determine the eGFP and mcherry spectral bleedthrough (BT) values and to calculate the net FRET (nF) (equation 1) and normalized FRET (NFRET) at each pixel. With the background and bleed-through corrections set, the nF for each pixel as described by equation 1 was calculated and the data were presented as 32-bit images. nF was divided by the square root of eGFP and mcherry intensities (equation 2) to obtain the normalized FRET (NFRET) value at each pixel. FRET normalization was used to control for large differences in fluorophore expression within subcellular regions and between different cells in a dish.
where, nF=net FRET, IFRET=mcherry sensitized emission with 488 nm excitation, IeGFP=eGFP emission with 488 nm excitation, BTeGFP=spectral bleedthrough of eGFP emission into mcherry emission spectra at 488 nm excitation, Imcherry=mcherry emission with 561 nm excitation and BTmcherry=spectral bleedthrough of mcherry emission into eGFP emission spectra at 561 nm excitation. IFRET, IeGFP and Imcherry were obtained from Neuro-2a cells transfected with GaIT-eCFP+α4-mcherry+β2-eGFP. BTeGFP and BTmcherry values were obtained from Neuro-2a cells transfected with α4-mcherry+β2wt and α4wt+β2-eGFP respectively.
Histograms of NFRET (x-axis) versus number of pixels (y-axis) of each imaged cell were compiled for either the whole cell sections or the TG, TGN ROIs, demarcated by intensity-based thresholding of GaIT-eCFP fluorescence. Frequency histograms obtained in this way (omitting values of zero) were merged for all cells in each experimental group and fitted to two Gaussian components such that a minimum goodness of fit (R^2) value of 0.995 was achieved. Ratios of area under the curve for the two Gaussian components with high and low mean NFRET values were used to determine changes in receptor stoichiometry between experimental groups: NFRET histograms were fitted to Gaussian components, yielding the total pixel area under either the A1 (low mean NFRET fit) or A2 (high mean NFRET fit) components. For quantitative measurements of stoichiometry, we compared the fractional area (FA) for the low NFRET component in each case as given by the following equation:
where, FA=fractional area, A1=area under the curve for low mean NFRET Gaussian component and A2=area under the curve for high mean NFRET Gaussian component.
Due to variability resulting from cell passage number, we imaged untreated control cells on the same day to compare and evaluate the effects of drug exposure on stoichiometry.

ER exit sites (ERES) = type: cell-based, mouse
Description: as §3
Neuro-2a cells were co-transfected with 500 ng each of α4-mcherry and β2-wt nAChR subunits and 250 ng of the ERES marker, Sec24D-eGFP. Each cell was focused to a plane where the maximum ERES were visualized. Sequential images of eGFP and mcherry fluorescence were obtained and linearly unmixed. For quantification, ERES regions of interest (ROIs) were demarcated using intensity-based thresholding and counted for each cell using the particle analysis feature in ImageJ version 1.44 or later. The fluorescence intensity was obtained for each ERES body within the cells and average ERES intensity was plotted. Error bars for ERES measurements are ±standard error of mean (SEM) and p values are based on a 2-tailed t test.

α4-eGFPβ2-wt nAChRs [2] = biological target: T3, α4-eGFPβ2-wt nAChRs (Mus musculus, UniProt O70174+Q9ERK7); type: cell-based
T3 construct: expressed in transfected cells; host or cells: mouse Neuro-2a cells
Description: Neuro-2a cells were plated on 12 mm glass coverslips within 35 mm plastic bottom cell culture dishes. The following day, cells were transfected with 500 ng α4-eGFP and 500 ng β2-wt nAChR subunits. 24 to 48 hr later, glass coverslips were transferred to dishes on the microscope stage. Green fluorescence was visualized with an upright microscope (BX50WI, Olympus) and UV illumination with appropriate excitation filters. Agonist-induced currents were tested at a holding potential of −65 mV using a focal, relatively rapid drug application system designed to minimize desensitization (Xiao et al., 2009). We applied drugs from the lowest to highest concentration at 3 min intervals to minimize desensitization. Whole-cell patch-clamp recordings were with a MultiClamp 700B amplifier, a 1322 analog-to-digital converter, and pCLAMP 9.2 software (all from Axon Instruments, Molecular Devices). Data were sampled at 10 kHz and filtered at 2 kHz.
The intrapipette solution contained (in mM): 135 potassium gluconate, 5 KCl, 5 EGTA, 0.5 CaCl2, 10 HEPES, 2 Mg-ATP, and 0.1 GTP; the pH was adjusted to 7.2 with Tris base and the osmolarity to 300 mOsm with sucrose. The extracellular solution contained (in mM): 140 NaCl, 5 KCl, 2 CaCl2, 1 MgCl2, 10 HEPES, and 10 glucose; pH was adjusted to 7.3 with Tris base. The Nernst potential for Cl^− in the intrapipette solution is −82.9 mV. The bath was continuously perfused with extracellular solution (ECS) at room temperature (23±1° C.). The patch electrodes had resistances of 5 to 8 MΩ. The junction potential between the patch pipette and the bath solutions was nulled just before forming a gΩ seal. Series resistance was monitored and compensated by 70-80% throughout recordings. The data were ignored if the series resistance (15-30 MΩ) changed by >20% during the recording session.

Neuro-2a cells [3] = type: cell-based, mouse; remark: listed apart in the source
Description: as §2
In ImageJ, background was subtracted, and DSred2-ER fluorescence was thresholded and demarcated for each cell.

α4-eGFPβ2-wt nAChRs [4] = biological target: T3, α4-eGFPβ2-wt nAChRs; type: cell-based; remark: listed apart in the source
Description: Details of the quantification method have been previously described (Srinivasan et al., 2011). Briefly, PM fluorescence was extracted as follows: Raw TIRF images were converted to background-subtracted images and the ER fluorescence was thresholded and selected. ER fluorescence was then subtracted from the original image to generate images with PM fluorescence signals. These procedures yielded a dataset of several hundred thousand pixel intensities over the 15-50 cells in each experimental group. Fluorescence intensities are simply the sum of pixel values for either the PM or the ER or the ER+PM (using whole TIRF footprint images). Mean PM fluorescence intensity was derived by dividing the total fluorescence intensity for each experimental group by the number of imaged cells and normalized to intensity of untreated cells. Ratios of fluorescence intensities for the whole TIRF footprint (ER+PM) to ER were used to determine the post-Golgi fraction of receptors. For PM integrated density measurements, rather than plotting SEMs (which would be indistinguishably small on the plots), we have used “error bars” to depict 99% confidence intervals based on a two-tailed t-test. Measurements from drug treated cells were normalized to values of untreated cells imaged on the same day. DHβE TIRF experiments were performed on a different day from nicotine and cytisine experiments.

NMDA receptor = details: in vivo; cited from earlier work
[5] = compared with untreated cells, 48 h
[6] = compared to untreated cells, 48 h exposure

T3 sequence (O70174 31-629): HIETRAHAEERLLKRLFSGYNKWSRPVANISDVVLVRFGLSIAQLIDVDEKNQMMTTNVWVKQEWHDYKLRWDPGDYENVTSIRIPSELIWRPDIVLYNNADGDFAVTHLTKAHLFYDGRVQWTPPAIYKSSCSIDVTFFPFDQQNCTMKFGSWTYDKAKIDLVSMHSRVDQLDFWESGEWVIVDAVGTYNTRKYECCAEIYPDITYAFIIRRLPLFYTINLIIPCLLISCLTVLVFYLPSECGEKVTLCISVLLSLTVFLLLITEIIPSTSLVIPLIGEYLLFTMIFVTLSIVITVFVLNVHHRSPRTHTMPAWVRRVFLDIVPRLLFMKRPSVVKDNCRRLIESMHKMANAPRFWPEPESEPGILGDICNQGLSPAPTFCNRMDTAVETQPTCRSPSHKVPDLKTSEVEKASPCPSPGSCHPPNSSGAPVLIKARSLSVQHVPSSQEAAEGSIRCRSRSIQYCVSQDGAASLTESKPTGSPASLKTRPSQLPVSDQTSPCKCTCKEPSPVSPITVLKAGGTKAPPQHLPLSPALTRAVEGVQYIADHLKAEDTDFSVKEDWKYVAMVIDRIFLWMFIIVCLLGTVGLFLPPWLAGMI
T3 sequence (Q9ERK7 26-501): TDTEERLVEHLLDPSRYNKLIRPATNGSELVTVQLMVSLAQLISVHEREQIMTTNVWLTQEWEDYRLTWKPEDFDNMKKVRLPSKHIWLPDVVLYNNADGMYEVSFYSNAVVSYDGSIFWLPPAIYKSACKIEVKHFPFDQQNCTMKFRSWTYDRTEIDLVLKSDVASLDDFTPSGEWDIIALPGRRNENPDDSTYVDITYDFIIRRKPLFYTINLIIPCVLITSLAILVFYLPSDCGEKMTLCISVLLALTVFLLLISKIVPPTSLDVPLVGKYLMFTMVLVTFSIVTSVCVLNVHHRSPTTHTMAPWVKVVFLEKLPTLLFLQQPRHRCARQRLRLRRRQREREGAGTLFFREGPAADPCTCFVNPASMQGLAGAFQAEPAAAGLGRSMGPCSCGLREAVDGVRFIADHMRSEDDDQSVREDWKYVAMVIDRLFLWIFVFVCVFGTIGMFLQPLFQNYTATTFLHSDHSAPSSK
Chain of α4β2 nAChRs (O70174 31-629): as the sequence (O70174 31-629) above
Chain of α4β2 nAChRs (Q9ERK7 26-501): as the sequence (Q9ERK7 26-501) above
T2 sequence (O70174 31-629, stated change not applied): as the sequence (O70174 31-629) above
T2 sequence (Q8R493 21-495 R348C): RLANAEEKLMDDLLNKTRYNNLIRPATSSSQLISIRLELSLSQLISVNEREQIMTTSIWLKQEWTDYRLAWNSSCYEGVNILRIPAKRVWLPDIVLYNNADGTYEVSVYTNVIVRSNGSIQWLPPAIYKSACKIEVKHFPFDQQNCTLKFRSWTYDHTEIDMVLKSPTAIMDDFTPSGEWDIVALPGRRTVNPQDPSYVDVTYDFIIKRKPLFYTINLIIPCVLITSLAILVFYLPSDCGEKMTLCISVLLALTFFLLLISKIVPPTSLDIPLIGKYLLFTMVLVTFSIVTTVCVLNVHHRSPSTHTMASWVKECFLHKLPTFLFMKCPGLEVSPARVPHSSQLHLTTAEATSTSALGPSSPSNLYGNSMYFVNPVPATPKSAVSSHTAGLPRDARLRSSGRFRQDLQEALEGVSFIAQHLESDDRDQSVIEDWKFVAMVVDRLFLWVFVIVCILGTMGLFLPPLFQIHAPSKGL
T1 sequence (O70174 31-629): as the sequence (O70174 31-629) above
T1 sequence (Q8R493 21-495): as the sequence (Q8R493 21-495 R348C) above, with C328R counted along it

## CC(=O)OCC[N+](C)(C)C [ACh]
α4-GFPβ4-WT nAChRs; 300 μM ACh puffs (0.1 s, 20 psi), α4-GFPβ4-WT
  ACh evoked inward currents: 310±72 pA
α4-GFPβ4-WT nAChRs; 300 μM ACh, α4-GFPβ4-WT (8/8)
  neurons in which ACh evoked inward currents: 100%
α4-GFPβ4-WT nAChRs; 300 μM ACh, α4-GFPβ4-WT as printed
  current density (ACh currents divided by membrane capacitance): 6.3±1.4 pA/pF
α4-GFPβ4-R348C nAChRs; 300 μM ACh puffs (0.1 s, 20 psi), α4-GFPβ4-R348C
  ACh evoked inward currents: 120±33 pA
α4-GFPβ4-R348C nAChRs; 300 μM ACh, α4-GFPβ4-R348C (11/12)
  neurons in which ACh evoked inward currents: 92%
α4-GFPβ4-R348C nAChRs; 300 μM ACh, α4-GFPβ4-R348C as printed
  current density (ACh currents divided by membrane capacitance): 16.3±2.1 pA/pF

## O=c1cccc2n1C[C@@H]1CNC[C@H]2C1 [Cytisine, cytisine]
Neuro-2a cells [1]
  Number of TGN bodies: no effect
  effect on the average intensity of TGN bodies (in words): significantly reduced
  effect on the number of TGN bodies (in words): failed to significantly affect
ATF6
  reduction in the ratio of nuclear to whole cell ATF6-eGFP fluorescence: ~25%
α4β2 nAChRs
  TG+TGN FA (fractional area of low NFRET component): 0.42
  whole cell FA (fractional area of low NFRET component): 0.30
ER exit sites (ERES)
  increase in ERES fluorescence / formation of ERES: ~2 fold
α4-eGFPβ2-wt nAChRs [2]
  evoked currents as % of maximum currents induced by 500 μM nicotine: < 0.1%
  fraction of the total receptor population activated: < 0.1%
Neuro-2a cells [3]
  effect on peripheral ER area (in words): reduced
  reduction in the average ER area: ~1.4 fold
α4-eGFPβ2-wt nAChRs [4]
  increase in PM-localized nAChRs: 3 fold and ~3.5 fold
  increase in the footprint/ER ratio: ~1.5 fold and ~2 fold

## CO[C@H]1CC=C2CCN3CCC4=C(CC(=O)OC4)[C@]23C1 [DHβE, dihydro-β-erythroidine]
Neuro-2a cells [1]; [5]
  effect on the average intensity of TGN bodies (in words): significantly reduced
  effect on the number of TGN bodies (in words): failed to significantly affect
ATF6; 10 or 100 μM, 48 h (both concentrations)
  reduction in the ratio of nuclear to whole cell ATF6-eGFP fluorescence: ~23%
α4β2 nAChRs; 10 μM DHβE, untreated cells 0.53
  TG+TGN FA (fractional area of low NFRET component): 0.37
α4β2 nAChRs; 10 μM DHβE, untreated cells 0.54
  whole cell FA (fractional area of low NFRET component): 0.45
α4β2 nAChRs; concentrations ranging from 0.1 to 1 μM
  effect on nAChR stoichiometry: did not affect
ER exit sites (ERES); compared to untreated control cells, co-expressed nAChRs
  increase in ERES fluorescence / formation of ERES: ~2 fold
α4-eGFPβ2-wt nAChRs [2]
  nAChR activation (in words): activates no receptors
Neuro-2a cells [3]; compared to untreated controls, 48 h
  effect on peripheral ER area (in words): did not significantly affect
α4-eGFPβ2-wt nAChRs [4]; [6]
  effect on the footprint/ER ratio (in words): no marked effects
  increase in the footprint/ER ratio: ~1.5 fold
α4-eGFPβ2-wt nAChRs [4]; compared to untreated controls, 48 h exposure
  effect on PM-localized nAChRs (in words): small, but significant increase; also recorded: no marked effects

## CNC1(c2ccccc2Cl)CCCCC1=O (centres unmarked) [ketamine]
NMDA receptor
  time within which antidepressant effects become established: 1 to 2 h
